Test results published in patent publication US10815230B2, “Casein kinase 1 delta inhibitor” (ELECTROPHORETICS LIMITED, priority 2015, dated 2020).

Key:
Assay in all cases: KINOMEscan binding assay
Settings in all cases: read-out: % Ctrl @ 10000 nM
NIM1 = NIM1 (Homo sapiens, UniProt Q8IY84)
YSK4 = molecular target: T1, YSK4 (Homo sapiens, UniProt Q56UN5)
T1 construct: purchased DiscoveRx (KINOMEscan, LeadHunter Discovery services)

ROCK2 = ROCK2 (Homo sapiens, UniProt O75116)
NEK4 = NEK4 (Homo sapiens, UniProt P51957)
CAMK1D = CAMK1D (Homo sapiens, UniProt Q8IU85)
PRKR = PRKR (Homo sapiens, UniProt P19525)
PIK3CA (I800L) = PIK3CA (I800L) (Homo sapiens, UniProt P42336, I800L)
[1] = molecular target: ABL1 (F317I) non-phosphorylated (Homo sapiens, UniProt P00519, F317I)
SIK = SIK (Homo sapiens, UniProt P57059)
ZAK = molecular target: T2, ZAK (Homo sapiens, UniProt Q9NYL2)
T2 construct: purchased DiscoveRx (KINOMEscan, LeadHunter Discovery services)

WNK3 = molecular target: T3, WNK3 (Homo sapiens, UniProt Q9BYP7)
T3 construct: purchased DiscoveRx (KINOMEscan, LeadHunter Discovery services)

PIK4CB = PIK4CB (Homo sapiens, UniProt Q9UBF8)
[2] = molecular target: ABL1 (E255K) phosphorylated (Homo sapiens, UniProt P00519, E255K)
MLK3 = MLK3 (Homo sapiens, UniProt Q16584)
AKT3 = AKT3 (Homo sapiens, UniProt Q9Y243)
HIPK1 = HIPK1 (Homo sapiens, UniProt Q86Z02)
PCTK1 = PCTK1 (Homo sapiens, UniProt Q00536)
DRAK1 = DRAK1 (Homo sapiens, UniProt Q9UEE5)
MEK6 = MEK6 (Homo sapiens, UniProt P52564)
BLK = BLK (Homo sapiens, UniProt P51451)
SGK = SGK (Homo sapiens, UniProt O00141)
HIPK2 = HIPK2 (Homo sapiens, UniProt Q9H2X6)
MST4 = MST4 (Homo sapiens, UniProt Q9P289)
STK36 = STK36 (Homo sapiens, UniProt Q9NRP7)
PDPK1 = PDPK1 (Homo sapiens, UniProt O15530)
DCAMKL2 = DCAMKL2 (Homo sapiens, UniProt Q8N568)
MST1 = MST1 (Homo sapiens, UniProt Q13043)
RIPK2 = RIPK2 (Homo sapiens, UniProt O43353)
LYN = LYN (Homo sapiens, UniProt P07948)
GAK = GAK (Homo sapiens, UniProt O14976)
DYRK1B = DYRK1B (Homo sapiens, UniProt Q9Y463)
EPHB3 = EPHB3 (Homo sapiens, UniProt P54753)
ACVR1 = ACVR1 (Homo sapiens, UniProt Q04771)
PIK3CA (E545A) = PIK3CA (E545A) (Homo sapiens, UniProt P42336, E545A)
DYRK2 = DYRK2 (Homo sapiens, UniProt Q92630)
BRK = BRK (Homo sapiens, UniProt Q13882)
SNRK = SNRK (Homo sapiens, UniProt Q9NRH2)
SRPK1 = SRPK1 (Homo sapiens, UniProt Q96SB4)
TIE2 = TIE2 (Homo sapiens, UniProt Q02763)
MAP3K3 = MAP3K3 (Homo sapiens, UniProt Q99759)
ROS1 = ROS1 (Homo sapiens, UniProt P08922)
FGFR2 = FGFR2 (Homo sapiens, UniProt P21802)
IRAK1 = IRAK1 (Homo sapiens, UniProt P51617)

SRPK1, sequence (Q96SB4 whole entry): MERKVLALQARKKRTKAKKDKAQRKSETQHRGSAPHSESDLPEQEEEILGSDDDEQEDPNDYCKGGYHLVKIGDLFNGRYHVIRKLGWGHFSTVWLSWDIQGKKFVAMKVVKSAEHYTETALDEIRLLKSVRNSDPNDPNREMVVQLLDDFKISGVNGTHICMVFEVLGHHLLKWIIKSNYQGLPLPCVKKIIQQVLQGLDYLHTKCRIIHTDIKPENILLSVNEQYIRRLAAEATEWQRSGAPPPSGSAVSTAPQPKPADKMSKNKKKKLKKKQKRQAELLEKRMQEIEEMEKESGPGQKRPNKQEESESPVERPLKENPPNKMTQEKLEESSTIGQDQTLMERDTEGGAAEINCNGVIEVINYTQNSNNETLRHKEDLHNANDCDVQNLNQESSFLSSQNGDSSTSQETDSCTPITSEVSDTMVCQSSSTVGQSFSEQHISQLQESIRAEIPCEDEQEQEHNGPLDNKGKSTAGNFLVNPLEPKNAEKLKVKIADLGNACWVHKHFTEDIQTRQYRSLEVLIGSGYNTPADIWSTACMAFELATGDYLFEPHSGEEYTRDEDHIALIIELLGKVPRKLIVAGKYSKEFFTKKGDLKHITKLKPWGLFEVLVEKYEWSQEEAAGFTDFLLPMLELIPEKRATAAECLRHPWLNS
ABL1 (F317I) non-phosphorylated, sequence (P00519 whole entry F317I): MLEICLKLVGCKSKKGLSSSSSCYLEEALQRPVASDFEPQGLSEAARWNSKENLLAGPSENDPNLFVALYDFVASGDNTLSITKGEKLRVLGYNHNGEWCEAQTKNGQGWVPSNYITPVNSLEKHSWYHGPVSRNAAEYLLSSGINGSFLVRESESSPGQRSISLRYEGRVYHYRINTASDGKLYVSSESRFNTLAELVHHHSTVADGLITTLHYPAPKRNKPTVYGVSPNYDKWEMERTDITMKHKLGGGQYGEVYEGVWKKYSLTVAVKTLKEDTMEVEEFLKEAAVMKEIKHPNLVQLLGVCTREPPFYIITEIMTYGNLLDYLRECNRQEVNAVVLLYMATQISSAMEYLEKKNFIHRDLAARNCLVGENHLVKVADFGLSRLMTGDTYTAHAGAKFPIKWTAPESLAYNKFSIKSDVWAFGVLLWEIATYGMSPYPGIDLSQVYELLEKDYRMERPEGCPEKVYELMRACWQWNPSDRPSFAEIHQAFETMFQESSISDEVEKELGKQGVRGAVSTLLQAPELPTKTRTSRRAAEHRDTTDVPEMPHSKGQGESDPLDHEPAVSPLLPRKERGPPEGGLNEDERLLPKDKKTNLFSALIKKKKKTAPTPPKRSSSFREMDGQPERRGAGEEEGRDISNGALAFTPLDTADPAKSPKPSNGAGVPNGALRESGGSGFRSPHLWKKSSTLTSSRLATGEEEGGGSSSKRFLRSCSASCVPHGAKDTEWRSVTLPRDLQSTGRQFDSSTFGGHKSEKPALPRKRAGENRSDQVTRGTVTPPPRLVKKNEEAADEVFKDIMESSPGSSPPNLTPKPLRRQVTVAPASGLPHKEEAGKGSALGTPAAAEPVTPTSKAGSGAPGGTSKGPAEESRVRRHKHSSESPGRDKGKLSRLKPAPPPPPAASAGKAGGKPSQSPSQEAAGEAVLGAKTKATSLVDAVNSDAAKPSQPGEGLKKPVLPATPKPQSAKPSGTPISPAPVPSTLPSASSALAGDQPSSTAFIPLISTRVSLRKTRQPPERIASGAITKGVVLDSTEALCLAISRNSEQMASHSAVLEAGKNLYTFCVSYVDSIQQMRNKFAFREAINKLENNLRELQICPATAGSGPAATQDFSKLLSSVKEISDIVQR
BLK, sequence (P51451 whole entry): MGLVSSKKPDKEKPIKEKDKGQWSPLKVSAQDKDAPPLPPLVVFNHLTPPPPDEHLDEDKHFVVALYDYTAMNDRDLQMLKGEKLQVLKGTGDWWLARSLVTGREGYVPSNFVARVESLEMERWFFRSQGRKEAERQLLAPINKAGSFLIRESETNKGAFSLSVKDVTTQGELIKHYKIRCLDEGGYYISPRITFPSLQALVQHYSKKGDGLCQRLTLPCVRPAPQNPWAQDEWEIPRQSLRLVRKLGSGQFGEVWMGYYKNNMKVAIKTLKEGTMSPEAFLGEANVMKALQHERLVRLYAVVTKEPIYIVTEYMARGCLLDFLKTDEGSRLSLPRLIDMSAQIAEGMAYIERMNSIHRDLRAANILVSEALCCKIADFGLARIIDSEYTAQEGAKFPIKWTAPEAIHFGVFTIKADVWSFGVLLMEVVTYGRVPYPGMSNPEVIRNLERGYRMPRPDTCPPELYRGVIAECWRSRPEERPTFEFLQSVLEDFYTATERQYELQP
MST1, sequence (Q13043 whole entry): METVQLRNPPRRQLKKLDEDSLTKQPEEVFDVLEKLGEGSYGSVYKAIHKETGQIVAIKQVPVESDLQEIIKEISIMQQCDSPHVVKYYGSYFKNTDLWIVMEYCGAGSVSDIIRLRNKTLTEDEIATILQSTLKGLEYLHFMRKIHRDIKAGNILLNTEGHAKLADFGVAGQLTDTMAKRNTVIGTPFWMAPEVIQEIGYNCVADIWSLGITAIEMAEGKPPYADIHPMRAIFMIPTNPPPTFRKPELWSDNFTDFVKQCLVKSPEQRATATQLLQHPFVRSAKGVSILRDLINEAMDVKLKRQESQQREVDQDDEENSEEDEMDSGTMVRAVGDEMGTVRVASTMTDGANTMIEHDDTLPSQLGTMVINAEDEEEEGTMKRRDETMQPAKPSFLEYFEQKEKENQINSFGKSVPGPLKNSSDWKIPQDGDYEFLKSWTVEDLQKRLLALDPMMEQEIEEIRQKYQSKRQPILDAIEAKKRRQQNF
NIM1, sequence (Q8IY84 whole entry): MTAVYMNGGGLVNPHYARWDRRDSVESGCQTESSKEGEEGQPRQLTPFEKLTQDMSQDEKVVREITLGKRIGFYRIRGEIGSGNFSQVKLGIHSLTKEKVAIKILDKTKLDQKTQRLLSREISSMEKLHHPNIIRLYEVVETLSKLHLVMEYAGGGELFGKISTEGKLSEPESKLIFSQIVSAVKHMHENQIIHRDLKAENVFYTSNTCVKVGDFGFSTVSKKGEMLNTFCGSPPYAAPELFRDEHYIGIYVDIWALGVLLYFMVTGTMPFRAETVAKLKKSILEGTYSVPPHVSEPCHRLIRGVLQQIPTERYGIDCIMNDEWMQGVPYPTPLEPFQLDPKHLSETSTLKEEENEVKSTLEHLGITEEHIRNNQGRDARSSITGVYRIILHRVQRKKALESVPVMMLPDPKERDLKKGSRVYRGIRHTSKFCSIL
PIK3CA (I800L), sequence (P42336 whole entry I800L): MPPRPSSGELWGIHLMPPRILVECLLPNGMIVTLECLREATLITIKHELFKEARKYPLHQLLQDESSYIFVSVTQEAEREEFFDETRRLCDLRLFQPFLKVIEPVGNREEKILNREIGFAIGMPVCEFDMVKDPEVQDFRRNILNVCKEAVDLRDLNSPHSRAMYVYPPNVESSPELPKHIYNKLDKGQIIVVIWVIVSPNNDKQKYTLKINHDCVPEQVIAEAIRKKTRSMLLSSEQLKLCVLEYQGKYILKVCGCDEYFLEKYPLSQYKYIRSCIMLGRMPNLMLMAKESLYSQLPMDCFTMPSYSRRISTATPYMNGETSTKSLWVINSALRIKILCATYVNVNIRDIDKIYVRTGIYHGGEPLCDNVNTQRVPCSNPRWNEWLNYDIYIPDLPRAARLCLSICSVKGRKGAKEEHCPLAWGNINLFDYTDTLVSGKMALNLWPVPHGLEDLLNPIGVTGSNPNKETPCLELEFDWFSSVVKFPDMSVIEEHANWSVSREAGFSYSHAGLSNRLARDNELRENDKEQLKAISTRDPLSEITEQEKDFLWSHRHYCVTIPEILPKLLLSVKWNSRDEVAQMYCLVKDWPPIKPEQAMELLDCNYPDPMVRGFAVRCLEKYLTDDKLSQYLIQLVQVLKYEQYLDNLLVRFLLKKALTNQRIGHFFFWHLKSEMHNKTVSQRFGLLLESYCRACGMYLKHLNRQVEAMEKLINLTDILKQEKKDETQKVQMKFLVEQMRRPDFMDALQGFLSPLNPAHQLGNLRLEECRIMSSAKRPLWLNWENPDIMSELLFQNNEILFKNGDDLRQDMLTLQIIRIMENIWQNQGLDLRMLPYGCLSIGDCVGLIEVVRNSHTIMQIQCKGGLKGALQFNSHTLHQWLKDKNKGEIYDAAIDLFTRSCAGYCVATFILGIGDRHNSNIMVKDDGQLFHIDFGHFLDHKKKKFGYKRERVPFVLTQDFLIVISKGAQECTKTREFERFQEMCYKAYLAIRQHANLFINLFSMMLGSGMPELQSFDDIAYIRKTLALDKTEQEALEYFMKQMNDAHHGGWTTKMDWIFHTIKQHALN
BRK, sequence (Q13882 whole entry): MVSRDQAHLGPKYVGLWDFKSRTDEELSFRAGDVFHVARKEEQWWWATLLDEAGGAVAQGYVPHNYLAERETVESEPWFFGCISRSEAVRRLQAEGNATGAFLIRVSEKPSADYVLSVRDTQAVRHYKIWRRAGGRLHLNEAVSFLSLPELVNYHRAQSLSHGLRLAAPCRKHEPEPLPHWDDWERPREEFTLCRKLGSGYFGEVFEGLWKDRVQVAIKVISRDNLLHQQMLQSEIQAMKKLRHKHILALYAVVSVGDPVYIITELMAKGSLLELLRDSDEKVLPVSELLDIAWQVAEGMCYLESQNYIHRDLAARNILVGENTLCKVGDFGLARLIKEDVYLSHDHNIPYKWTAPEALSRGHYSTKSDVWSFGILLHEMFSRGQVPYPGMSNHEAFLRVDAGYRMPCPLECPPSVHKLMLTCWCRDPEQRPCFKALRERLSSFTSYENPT
PIK3CA (E545A), sequence (P42336 whole entry E545A): as the sequence (P42336 whole entry I800L) above, with E545A, L800I counted along it
ABL1 (E255K) phosphorylated, sequence (P00519 whole entry E255K): as the sequence (P00519 whole entry F317I) above, with E255K, I317F counted along it

**Q.** Which remaining binding at 10 µM (NIM1) does the source give for `Nc1ncc(-c2nc3ccccc3o2)c(-c2ccncc2)n1` [Comparative Compound 324, 5-(1,3-benzoxazol-2-yl)-4-(pyridine-4-yl)pyrimidin-2-amine] here?
**A.** The remaining binding at 10 µM was 96%.

**Q.** What about the remaining binding at 10 µM (YSK4) of the same compound?
**A.** Its remaining binding at 10 µM is 88%.

**Q.** What about the remaining binding at 10 µM (ROCK2) of the same compound?
**A.** Its remaining binding at 10 µM is 83%.

**Q.** And the remaining binding at 10 µM (NEK4)?
**A.** The remaining binding at 10 µM was 89%.

**Q.** What about the remaining binding at 10 µM (CAMK1D) of the same compound?
**A.** The remaining binding at 10 µM was 96%.

**Q.** What about the remaining binding at 10 µM (PRKR) of the same compound?
**A.** Its remaining binding at 10 µM is 96%.

**Q.** What about the remaining binding at 10 µM (PIK3CA (I800L)) of the same compound?
**A.** Its remaining binding at 10 µM is 52%.

**Q.** What about the remaining binding at 10 µM [1] of the same compound?
**A.** Its remaining binding at 10 µM is 90%.

**Q.** And the remaining binding at 10 µM (SIK)?
**A.** Its remaining binding at 10 µM is 100%.

**Q.** What about the remaining binding at 10 µM (ZAK) of the same compound?
**A.** The remaining binding at 10 µM was 79%.

**Q.** What about the remaining binding at 10 µM (WNK3) of the same compound?
**A.** Its remaining binding at 10 µM is 89%.

**Q.** What about the remaining binding at 10 µM (PIK4CB) of the same compound?
**A.** Its remaining binding at 10 µM is 96%.

**Q.** And the remaining binding at 10 µM [2]?
**A.** Its remaining binding at 10 µM is 33%.

**Q.** And the remaining binding at 10 µM (MLK3)?
**A.** Its remaining binding at 10 µM is 83%.

**Q.** And the remaining binding at 10 µM (AKT3)?
**A.** Its remaining binding at 10 µM is 100%.

**Q.** What about the remaining binding at 10 µM (HIPK1) of the same compound?
**A.** Its remaining binding at 10 µM is 64%.

**Q.** What about the remaining binding at 10 µM (PCTK1) of the same compound?
**A.** The remaining binding at 10 µM was 95%.

**Q.** What about the remaining binding at 10 µM (DRAK1) of the same compound?
**A.** Its remaining binding at 10 µM is 100%.

**Q.** What about the remaining binding at 10 µM (MEK6) of the same compound?
**A.** Its remaining binding at 10 µM is 98%.

**Q.** And the remaining binding at 10 µM (BLK)?
**A.** Its remaining binding at 10 µM is 80%.

**Q.** What about the remaining binding at 10 µM (SGK) of the same compound?
**A.** Its remaining binding at 10 µM is 100%.

**Q.** And the remaining binding at 10 µM (HIPK2)?
**A.** Its remaining binding at 10 µM is 67%.

**Q.** What about the remaining binding at 10 µM (MST4) of the same compound?
**A.** The remaining binding at 10 µM was 68%.

**Q.** What about the remaining binding at 10 µM (STK36) of the same compound?
**A.** Its remaining binding at 10 µM is 96%.

**Q.** And the remaining binding at 10 µM (PDPK1)?
**A.** The remaining binding at 10 µM was 100%.

**Q.** And the remaining binding at 10 µM (DCAMKL2)?
**A.** Its remaining binding at 10 µM is 99%.

**Q.** What about the remaining binding at 10 µM (MST1) of the same compound?
**A.** Its remaining binding at 10 µM is 92%.

**Q.** And the remaining binding at 10 µM (RIPK2)?
**A.** The remaining binding at 10 µM was 85%.

**Q.** What about the remaining binding at 10 µM (LYN) of the same compound?
**A.** The remaining binding at 10 µM was 99%.

**Q.** What about the remaining binding at 10 µM (GAK) of the same compound?
**A.** The remaining binding at 10 µM was 87%.

**Q.** And the remaining binding at 10 µM (DYRK1B)?
**A.** Its remaining binding at 10 µM is 97%.

**Q.** And the remaining binding at 10 µM (EPHB3)?
**A.** Its remaining binding at 10 µM is 95%.

**Q.** And the remaining binding at 10 µM (ACVR1)?
**A.** Its remaining binding at 10 µM is 100%.

**Q.** What about the remaining binding at 10 µM (PIK3CA (E545A)) of the same compound?
**A.** Its remaining binding at 10 µM is 76%.

**Q.** And the remaining binding at 10 µM (DYRK2)?
**A.** The remaining binding at 10 µM was 82%.

**Q.** What about the remaining binding at 10 µM (BRK) of the same compound?
**A.** The remaining binding at 10 µM was 99%.

**Q.** And the remaining binding at 10 µM (SNRK)?
**A.** Its remaining binding at 10 µM is 65%.

**Q.** And the remaining binding at 10 µM (SRPK1)?
**A.** The remaining binding at 10 µM was 64%.

**Q.** And the remaining binding at 10 µM (TIE2)?
**A.** Its remaining binding at 10 µM is 98%.

**Q.** And the remaining binding at 10 µM (MAP3K3)?
**A.** Its remaining binding at 10 µM is 76%.

**Q.** And the remaining binding at 10 µM (ROS1)?
**A.** Its remaining binding at 10 µM is 100%.

**Q.** What about the remaining binding at 10 µM (FGFR2) of the same compound?
**A.** The remaining binding at 10 µM was 63%.

**Q.** What about the remaining binding at 10 µM (IRAK1) of the same compound?
**A.** The remaining binding at 10 µM was 87%.

**Q.** Which results are given for `CNc1c(C(N)=O)c2ccccn2c1C(=O)c1ccc(F)cc1` [Compound A, 2-methyl-amino-3-[(4-fluorophenyl)carbonyl]indolizine-1-carboxamide]?
**A.** remaining binding at 10 µM (NIM1): 87%; remaining binding at 10 µM (YSK4): 73%; remaining binding at 10 µM (ROCK2): 71%; remaining binding at 10 µM (NEK4): 96%; remaining binding at 10 µM (CAMK1D): 97%; remaining binding at 10 µM (PRKR): 90%; remaining binding at 10 µM (PIK3CA (I800L)): 72%; remaining binding at 10 µM [1]: 85%; remaining binding at 10 µM (SIK): 83%; remaining binding at 10 µM (ZAK): 92%; remaining binding at 10 µM (WNK3): 75%; remaining binding at 10 µM (PIK4CB): 90%; remaining binding at 10 µM [2]: 15%; remaining binding at 10 µM (MLK3): 83%; remaining binding at 10 µM (AKT3): 100%; remaining binding at 10 µM (HIPK1): 51%; remaining binding at 10 µM (PCTK1): 89%; remaining binding at 10 µM (DRAK1): 95%; remaining binding at 10 µM (MEK6): 73%; remaining binding at 10 µM (BLK): 49%; remaining binding at 10 µM (SGK): 100%; remaining binding at 10 µM (HIPK2): 74%; remaining binding at 10 µM (MST4): 65%; remaining binding at 10 µM (STK36): 69%; remaining binding at 10 µM (PDPK1): 92%; remaining binding at 10 µM (DCAMKL2): 82%; remaining binding at 10 µM (MST1): 84%; remaining binding at 10 µM (RIPK2): 67%; remaining binding at 10 µM (LYN): 54%; remaining binding at 10 µM (GAK): 10%; remaining binding at 10 µM (DYRK1B): 89%; remaining binding at 10 µM (EPHB3): 42%; remaining binding at 10 µM (ACVR1): 95%; remaining binding at 10 µM (PIK3CA (E545A)): 73%; remaining binding at 10 µM (DYRK2): 83%; remaining binding at 10 µM (BRK): 92%; remaining binding at 10 µM (SNRK): 66%; remaining binding at 10 µM (SRPK1): 49%; remaining binding at 10 µM (TIE2): 100%; remaining binding at 10 µM (MAP3K3): 48%; remaining binding at 10 µM (ROS1): 100%; remaining binding at 10 µM (FGFR2): 53%; remaining binding at 10 µM (IRAK1): 93%
